Structures can show the parent of a compound that is named as a salt.
Assays:
platelet aggregation = experiment: Antithrombotic activity: inhibition of collagen-induced platelet aggregation (Born and Cross) in platelet-rich plasma of healthy volunteers; format: cell-based; details: Homo sapiens, 10 minutes preincubation at 37° C.
Procedure: 2. Antithrombotic activity Method The thrombocyte aggregation is measured using the method of Born and Cross (J. Physiol. 170:397 (1964)) in platelet-rich plasma taken from healthy volunteers. To inhibit coagulation, the blood is mixed with 3.14% sodium citrate in a volume ratio of 1:10. Collagen-induced aggregation The pattern of the decrease in optical density of the platelet suspension is photometrically measured and recorded after the addition of the aggregation-triggering substance. The rate of aggregation is determined from the angle of inclination of the density curve. The point on the curve where there is maximum light transmittance is used to calculate the optical density. The concentration of collagen used is as small as possible but sufficient to produce an irreversible reaction curve. Standard commercial collagen produced by Hormonchemie of Munich is used. Before the addition of the collagen the plasma is incubated for 10 minutes at 37° C. with the substance. From the measurements obtained, the EC50 is determined graphically as the concentration giving a 50% change in the optical density in terms of the inhibition of aggregation.

human thrombocytes = experiment: Inhibition of binding of ^3 H-BIBU 52 to human thrombocytes (competitive binding); details: human platelet-rich plasma diluted 1:10; 5 nM ^3 H-BIBU 52; 20 minutes, ambient temperature; read-out: Competitive binding of ^3 H-BIBU 52/test substance to human thrombocytes IC50
Procedure: 1. Inhibition of binding of ^3 H-BIBU 52 to human thrombocytes:
A suspension of human thrombocytes in plasma is incubated with ^3 H-BIBU 52 [=(3S,5S)-5-[(4'-amidino-4-biphenylyl)oxymethyl]-3-[(carboxyl)methyl]-2pyrrolidinone[3-^3 H-4-biphenylyl]] (see German Patent Application P 42 14 245.8 of the same applicant, dated 30.04.1992, internal reference: Case 5/1093-FL), which replaces the ^125 I fibrinogen ligand known from the literature, and various concentrations of the substance to be tested. The free and bound ligand are separated by centrifuging and quantified by scintillation counting. The inhibition of ^3 H-BIBU 52 binding by the test substance is determined from the measurements obtained.
In order to do this, donor blood is taken from an anticubital vein and anticoagulated with trisodium citrate (final concentration 13 mM). The blood is centrifuged for 10 minutes at 170×g and the supernatant platelet-rich plasma (PRP) is removed. The remaining blood is vigorously centrifuged once more in order to obtain plasma. The PRP is diluted 1:10 with autologous plasma. 750 μl are incubated with 50 μl of physiological saline solution, 100 μl of test substance solution, 50 μl of ^14 C-sucrose (3,700 Bq) and 50 μl of ^3 H-BIBU 52 (final concentration: 5 nM) at ambient temperature for 20 minutes. In order to measure the non-specific binding, 5 μl of BIBU 52 (final concentration: 30 μM) are used instead of the test substance. The samples are centrifuged for 20 seconds at 10,000× g and the supernatant is poured off. 100 μl thereof are measured in order to determine the free ligand. The pellet is dissolved in 500 μl of 0.2N NaOH, 450 μl are mixed with 2 ml of scintillator and 25 μl of 5N HCl and measured. The residual plasma remaining in the pellet is determined from the ^14 C-content and the bound ligand is determined from the ^3 H-measurement. After the non-specific binding has been deducted, the pellet activity is plotted against the concentration of the test substance and the concentration for a 50% inhibition of binding is determined.

mice = experiment: Tolerance after intravenous administration of 30 mg/kg to three mice; format: in vivo; details: 30 mg/kg i.v., three mice in each case

IC50 (human thrombocytes) | Structure (SMILES) | EC50 (platelet aggregation) | death of animals after intravenous administration (mice)
2000 nM | CN1CCc2nc(C3CCN(C(=O)N[C@H]4CC[C@H](C(=O)O)CC4)CC3)sc2CC1 [3(12), 2-[1-[(trans-4-carboxy-cyclohexyl)-aminocarbonyl]-piperid-4-yl]-6-methyl-4,5,7,8-tetrahydro-thiazolo[4,5-d]azepine] | 2900 nM | –
2100 nM | O=C(N[C@H]1CC[C@H](C(=O)O)CC1)c1ccc(-c2nc3cnccc3[nH]2)cc1 [3(8), 2-[4-[(trans-4-carboxy-cyclohexyl)-aminocarbonyl]-phenyl]-1H-imidazo[4,5-c]pyridine] | 4200 nM | –
1300 nM | CCOC(=O)[C@H]1CC[C@H](NC(=O)N2CCC(c3nc4c(s3)CCNCC4)CC2)CC1 [7(2), 2-[1-[(trans-4-ethoxycarbonyl-cyclohexyl)-aminocarbonyl]-piperid-4-yl]-4,5,7,8-tetrahydro-6H-thiazolo[4,5-d]azepine-hydrochloride] | 2600 nM | –
24 nM | Cc1cc(C(=O)N[C@H]2CC[C@H](C(=O)O)CC2)ccc1-c1nc2c(s1)CNCC2 [4(3), 2-[4-[(trans-4-carboxy-cyclohexyl)-aminocarbonyl]-2-methyl-phenyl]-4,5,6,7-tetrahydro-thiazolo[5,4-c]pyridine-trifluoraocetate] | 220 nM | –
31 nM | O=C(N[C@H]1CC[C@H](C(=O)O)CC1)N1CCC(c2nc3c(s2)CNCC3)CC1 [3(5), 2-[1-[(trans-4-carboxy-cyclohexyl)-aminocarbonyl]-piperid-4-yl]-4,5,6,7-tetrahydro-thiazolo[5,4-c]pyridine] | 100 nM | –
1600 nM | CC(C)COC(=O)[C@H]1CC[C@H](NC(=O)N2CCC(c3nc4c(s3)CCNCC4)CC2)CC1 [Example 7, 2-[1-[(trans-4-Isobutyloxycarbonyl-cyclohexyl)-aminocarbonyl]-piperid-4-yl]-4,5,7,8-tetrahydro-6H-thiazolo[4,5-d]azepine-hydrochloride] | 660 nM | –
42 nM | O=C(N[C@H]1CC[C@H](C(=O)O)CC1)N1CCC(c2nc3c(s2)CCNCC3)CC1 [3(6), 2-[1-[(trans-4-carboxy-cyclohexyl)-aminocarbonyl]-piperid-4-yl]-4,5,7,8-tetrahydro-6H-thiazolo[4,5-d]azepine] | 100 nM | –
210 nM | O=C(O)CC1CCN(C(=O)c2ccc(-c3nc4c(s3)CNCC4)cc2)CC1 [2(1), 2-[4-[4-(carboxymethyl)-piperidinocarbonyl]-phenyl]-4,5,6,7-tetrahydro-thiazolo[5,4-c]pyridine-hydrochloride] | 2600 nM | –
120 nM | O=C(O)[C@H]1CC[C@H](NC(=O)[C@H]2CC[C@H](c3nc4c(s3)CCNCC4)CC2)CC1 [4(4), 2-[trans-4-[(trans-4-carboxy-cyclohexyl)-aminocarbonyl]-cyclohexyl]-4,5,7,8-tetrahydro-6H-thiazolo[4,5-d]azepine-trifluoroacetate] | 110 nM | –
450 nM | COC(=O)[C@H]1CC[C@H](NC(=O)c2ccc(-c3nc4c(s3)CNCC4)c(C)c2)CC1 [2(4), 2-[4-[(trans-4-methoxycarbonyl-cyclohexyl)-aminocarbonyl]-2-methyl-phenyl]-4,5,6,7-tetrahydro-thiazolo[5,4-c]pyridine-dihydrochloride] | 1440 nM | –
1500 nM | CC(C)OC(=O)[C@H]1CC[C@H](NC(=O)N2CCC(c3nc4c(s3)CCNCC4)CC2)CC1 [7(3), 2-[1-[(trans-4-isopropoxycarbonyl-cyclohexyl)-aminocarbonyl]-piperid-4-yl]-4,5,7,8-tetrahydro-6H-thiazolo[4,5-d]azepine-hydrochloride] | 1300 nM | –
1400 nM | COC(=O)[C@H]1CC[C@H](NC(=O)N2CCC(c3nc4c(s3)CCNCC4)CC2)CC1 [7(1), 2-[1-[(trans-4-methoxycarbonyl-cyclohexyl)-aminocarbonyl]-piperid-4-yl]-4,5,7,8-tetrahydro-6H-thiazolo[4,5-d]azepine-hydrochloride] | 1400 nM | –

Structure (SMILES) | IC50 (human thrombocytes) | EC50 (platelet aggregation) | death of animals after intravenous administration (mice)
O=C(N[C@H]1CC[C@H](C(=O)O)CC1)c1ccc(-c2nc3c(s2)CCNCC3)cc1.O=C(O)C(F)(F)F [4(1), 2-[4-[(trans-4-carboxy-cyclohexyl)-aminocarbonyl]-phenyl]-4,5,7,8-tetrahydro-6H-thiazolo[4,5-d]azepine-trifluoroacetate] | 75 nM | 680 nM | no animals died
O=C(N[C@H]1CC[C@H](C(=O)O)CC1)c1ccc(-c2nc3c(s2)CNCC3)cc1.O=C(O)C(F)(F)F [Example 4, 2-[4-[(trans-4-Carboxy-cyclohexyl)-aminocarbonyl]-phenyl]-4,5,6,7-tetrahydro-thiazolo[5,4-c]pyridine-trifluoroacetate] | 96 nM | 410 nM | no animals died
